Experimental data reported in ChEMBL document CHEMBL4190345, “Synthesis and biological evaluation of new substituted thioglycolurils, their analogues and derivatives” (Eur J Med Chem, 2017).

What was measured:
[1] = system: Sclerotinia sclerotiorum; assay: Fungicidal activity against Sclerotinia sclerotiorum grown under potato-saccharose agar assessed as inhibition of mycelial radial growth at 30 mg/l incubated for 72 hrs; assay type: functional; settings: read-out: GI
[2] = system: Fusarium verticillioides; assay: Fungicidal activity against Fusarium moniliforme grown under potato-saccharose agar assessed as inhibition of mycelial radial growth at 30 mg/l incubated for 72 hrs; assay type: functional; settings: read-out: GI
[3] = system: Venturia inaequalis; assay: Fungicidal activity against Venturia inaequalis grown under potato-saccharose agar assessed as inhibition of mycelial radial growth at 30 mg/l incubated for 72 hrs; assay type: functional; settings: read-out: GI
[4] = system: Bipolaris sorokiniana; assay: Fungicidal activity against Bipolaris sorokiniana grown under potato-saccharose agar assessed as inhibition of mycelial radial growth at 30 mg/l incubated for 72 hrs; assay type: functional; settings: read-out: GI
[5] = system: A549; assay: Cytotoxicity in human A549 cells assessed as inhibition of cell growth incubated for 72 hrs by MTT assay; assay type: functional, cell-based; settings: A549, 72 h
[6] = system: Fusarium oxysporum; assay: Fungicidal activity against Fusarium oxysporum grown under potato-saccharose agar assessed as inhibition of mycelial radial growth at 30 mg/l incubated for 72 hrs; assay type: functional; settings: read-out: GI
[7] = system: Rhizoctonia solani; assay: Fungicidal activity against Rhizoctonia solani grown under potato-saccharose agar assessed as inhibition of mycelial radial growth at 30 mg/l incubated for 72 hrs; assay type: functional; settings: read-out: GI
[8] = system: MCF7; assay: Cytotoxicity in human MCF7 cells assessed as inhibition of cell growth incubated for 72 hrs by MTT assay; assay type: functional, cell-based; settings: MCF7, 72 h
[9] = Cytotoxicity in human […] cells assessed as inhibition of cell growth incubated for 72 hrs by MTT assay; assay type: functional, cell-based
[10] = system: RD; assay: Cytotoxicity in human RD cells assessed as inhibition of cell growth incubated for 72 hrs by MTT assay; assay type: functional, cell-based
[11] = system: HEK293; assay: Cytotoxicity in human HEK293 cells assessed as inhibition of cell growth incubated for 72 hrs by MTT assay; assay type: cell-based
[12] = Homo sapiens, HEK293, 72 h, read-out: IC50

Row | SMILES | inhibition of growth at 30 µg/mL [1] [%] | inhibition of growth at 30 µg/mL [2] [%] | inhibition of growth at 30 µg/mL [3] [%] | inhibition of growth at 30 µg/mL [4] [%] | IC50 [5] [µM] | inhibition of growth at 30 µg/mL [6] [%] | inhibition of growth at 30 µg/mL [7] [%] | IC50 [8] [µM] | IC50 [9] [µM] | IC50 [10] [µM] | IC50 [11, 12] [µM] | IC50 ([11]; hek293)
1 | CCN1C(=O)N(CC)C2C1NC(=S)N2/N=C/C=C/c1ccc(OC)cc1 (stereo not given) | 0 | 23 | 14 | 19 | 17.2 | 18 | 26 | 36.6 | 17.4 | 87 |  | 
2 | CSC1=NC2C(N(C)C(=O)N2C)N1/N=C/C=C/c1ccco1 (stereo not given) | 11 | 51 | 19 | 34 |  | 34 | 27 |  |  |  |  | 
3 | CSC1=NC2C(N(C)C(=O)N2C)N1/N=C/C=C/c1ccccc1[N+](=O)[O-] (stereo not given) | 13 | 19 | 10 | 36 | > 100 | 20 | 49 | > 100 | > 100 | > 100 |  | 
4 | CCN1C(=O)N(c2ccccc2)C2NC(=S)N(/N=C/C=C/c3ccccc3)C21 (stereo not given) |  |  |  |  | > 100 |  |  | 2.25 | 1.46 | 0.47 | 2.17 | 
5 | CSC1=NC2C(N(C)C(=O)N2c2ccccc2)N1/N=C/C=C/c1ccccc1 (stereo not given) | 0 | 16 | 24 | 56 |  | 25 | 32 |  |  |  |  | 
6 | CCN1C(=O)N(CC)C2C1NC(=S)N2/N=C/C=C/c1ccccc1 (stereo not given) | 3 | 41 | 12 | 19 | 6.53 | 36 | 42 | 36.1 | 4.38 | 2.25 | 42.1 | 
7 | COc1ccc(/C=C/C=N/N2C(=S)NC3C2N(C)C(=O)N3C)cc1 (stereo not given) |  |  |  |  | > 100 |  |  | > 100 | 99.1 | > 100 |  | 
8 | CC(/C=N/N1C(=S)NC2C1N(C)C(=O)N2C)=C\c1ccccc1 (stereo not given) | 11 | 20 | 28 | 9 | 49.4 | 29 | 82 | > 100 | 75.9 | 84 |  | 
9 | COc1ccccc1/C=C/C=N/N1C(SC)=NC2C1N(C)C(=O)N2C (stereo not given) | 13 | 14 | 13 | 33 |  | 20 | 56 |  |  |  |  | 
10 | COc1ccc(/C=C/C=N/N2C(SC)=NC3C2N(C)C(=O)N3C)cc1 (stereo not given) | 19 | 36 | 13 | 50 |  | 24 | 74 |  |  |  |  | 
11 | CN1C(=O)N(C)C2C1N=C(SCc1ccc(Cl)cc1)N2/N=C/C=C/c1ccccc1 (stereo not given) | 17 | 57 | 18 | 49 |  | 46 | 28 |  |  |  |  | 
12 | CCN1C(=O)N(CC)C2C1NC(=O)N2/N=C/C=C/c1ccccc1 (stereo not given) |  |  |  |  | 44.3 |  |  | 83.2 | 18.3 | 2.02 |  | Not Active
13 | CCN1C(=O)N(CC)C2C1N=C(SC)N2/N=C/C=C/c1ccccc1OC (stereo not given) | 23 | 42 | 20 | 47 | 4.79 | 51 | 65 | 34.6 | 1.09 | 7.97 | 145 | 
14 | CCN1C(=O)N(CC)C2C1NC(=O)N2/N=C/C=C/c1ccccc1[N+](=O)[O-] (stereo not given) |  |  |  |  | > 100 |  |  | 88 | 9.63 | 1.93 | 42.9 | 
15 | CN1C(=O)N(C)C2C1NC(=S)N2/N=C/C=C/c1ccccc1 (stereo not given) |  |  |  |  | 45.6 |  |  | > 100 | 43 | 46 |  | 
16 | CCSC1=NC2C(N(C)C(=O)N2C)N1/N=C/C=C/c1ccccc1 (stereo not given) | 32 | 71 | 28 | 48 |  | 70 | 80 |  |  |  |  | 

Row | SMILES | inhibition of growth at 30 µg/mL [1] [%] | inhibition of growth at 30 µg/mL [2] [%] | inhibition of growth at 30 µg/mL [3] [%] | inhibition of growth at 30 µg/mL [4] [%] | IC50 [5] [µM] | inhibition of growth at 30 µg/mL [6] [%] | inhibition of growth at 30 µg/mL [7] [%] | IC50 [8] [µM] | IC50 [9] [µM] | IC50 [10] [µM] | IC50 [11, 12] [µM] | IC50 ([11]; hek293)
17 | CSC1=NC2C(N(C)C(=O)N2C)N1/N=C/C=C/c1ccccc1 (stereo not given) | 17 | 73 | 9 | 50 |  | 71 | 45 |  |  |  |  | 
18 | CCN1C(=O)N(CC)C2C1N=C(SC)N2/N=C/C=C/c1ccccc1[N+](=O)[O-] (stereo not given) |  |  |  |  | > 100 |  |  | 66.7 | 65.6 | 41.9 |  | 
19 | CN1C(=O)N(C)C2C1N=C(SCc1ccc(Cl)cc1)N2/N=C/C=C/c1ccco1 (stereo not given) | 19 | 42 | 10 | 40 |  | 33 | 42 |  |  |  |  | 
20 | CCSC1=NC2C(N(CC)C(=O)N2CC)N1/N=C/C=C/c1ccccc1 (stereo not given) | 29 | 63 | 30 | 77 |  | 61 | 67 |  |  |  |  | 
21 | CCN1C(=O)N(CC)C2C1NC(=S)N2/N=C/C(C)=C/c1ccccc1 (stereo not given) | 5 | 41 | 25 | 7 | > 100 | 23 | 34 | 35.1 | 26.6 | 20 |  | 
22 | CCN1C(=O)N(CC)C2C1NC(=S)N2/N=C/C=C/c1ccccc1[N+](=O)[O-] (stereo not given) |  |  |  |  | > 100 |  |  | 43.9 | 7.71 | 15.2 | 19.3 | 
23 | CCN1C(=O)N(c2ccccc2)C2NC(=S)N(/N=C/C=C/c3ccccc3OC)C21 (stereo not given) | 12 | 19 | 0 | 0 | > 100 | 1 | 17 | 79.1 | 2.12 | 45.9 | 57.5 | 
24 | CSC1=NC2C(N(C)C(=O)N2c2ccccc2)N1/N=C/C=C/c1ccccc1[N+](=O)[O-] (stereo not given) | 17 | 9 | 16 | 37 |  | 10 | 12 |  |  |  |  | 
25 | CCN1C(=O)N(CC)C2C1N=C(SC)N2/N=C/C=C/c1ccc(OC)cc1 (stereo not given) | 12 | 32 | 13 | 64 |  | 32 | 76 |  |  |  |  | 
26 | CN1C(=O)N(c2ccccc2)C2NC(=S)N(/N=C/C=C/c3ccccc3)C21 (stereo not given) |  |  |  |  | > 100 |  |  | > 100 | 12.1 | 1.69 | 167 | 
27 | CN1C(=O)N(C)C2C1NC(=O)N2/N=C/C=C/c1ccccc1 (stereo not given) | 12 | 9 | 18 | 5 |  | 6 | 92 |  |  |  |  | 
28 | CCN1C(=O)N(CC)C2C1N=C(SC)N2/N=C/C=C/c1ccccc1 (stereo not given) | 11 | 37 | 13 | 49 | 21.4 | 38 | 60 | 46.6 | 5.47 | 24 | 151 | 
29 | CCN1C(=O)N(CC)C2C1N=C(SCc1ccc(Cl)cc1)N2/N=C/C=C/c1ccccc1OC (stereo not given) | 14 | 13 | 21 | 36 |  | 8 | 19 |  |  |  |  | 
30 | COc1cccc2c1C(=O)c1c(O)c3c(c(O)c1C2=O)C[C@@](O)(C(C)=O)C[C@@H]3O[C@H]1C[C@H](N)[C@H](O)[C@H](C)O1 [DAUNORUBICIN] |  |  |  |  | 0.51 |  |  | 1.44 | 0.21 | 2.45 | 11.2 | 
31 | COc1cccc2c1C(=O)c1c(O)c3c(c(O)c1C2=O)C[C@@](O)(C(=O)CO)C[C@@H]3O[C@H]1C[C@H](N)[C@H](O)[C@H](C)O1 [DOXORUBICIN] |  |  |  |  | 0.53 |  |  | 0.56 | 0.19 | 0.53 | 2.1 | 
32 | CC(C)(C)C(=O)C(Oc1ccc(Cl)cc1)n1cncn1 (stereo not given) [TRIADIMEFON] | 61 | 61 | 60 | 76 |  | 64 | 52 |  |  |  |  | 
